Data set [1] is described as follows: Cyclic voltammetry, onset potential of polymerization. In kind it is physicochemical. The following applies: 1 mg/ml in 0.01 M NaCl, ITO working electrode, Ag/AgCl reference, 50 mV/s. As to the method: In order to define the on-set potential of the polymerization of the trimer a three electrode setup was used. The working electrode is an ITO coated glass, the counter electrode is a Platinum sheet and the reference electrode is an Ag/AgCl saturated electrode. The electrolyte was 1mg/ml of compound 1 in 0.01M NaCl. The active area of the ITO was 21mm x 8mm. A cyclic voltametry was performed in order to define the onset potential. The potential was applied between the working and the reference electrode while the current was measured between the working and the counter electrode. The potential was scanned from +0.5V to -0.5V, starting from 0V with a scan rate of 50mV/s. During the first scan current increases at around +0.3V defining the onset potential of the polymerization were observed. The polymer is deposited on the active area of the ITO coated glass.
In order to define the on-set potential of the polymerization of the trimer we used a three electrode setup. The working electrode is an ITO coated glass, the counter electrode is a Platinum sheet and the reference electrode is a Ag/AgCl saturated electrode. The electrolyte was 1 mg/ml of compound 1 in 0.01 M NaCl. The active area of the ITO was 21 mm x 8 mm. […] The potential was applied between the working and the reference electrode while the current was measured between the working and the counter electrode. […]

Data set [2] can be described thus: Two-probe conductivity measurement of conducting wires in rose xylem. The class given is physicochemical, Rosa floribunda. The following applies: xylem wires in rose stem, two Au probes. As to the method: We chose to use cuttings of Rosa floribunda (garden rose) as our model plant system. The lower part of a rose stem was cut and the fresh cross section was immersed in an aqueous PEDOT-S:H solution for 24-48 h (Fig. 7A), during which time the PEDOT-S:H solution was taken up into the xylem vascular channel and transported apically. The rose was taken from the solution and rinsed in water. The outer bark, cortex and phloem of the bottom part of the stem were then gently peeled off, exposing dark continuous lines along individual 20-100 µm wide xylem channels (Fig. 7B-D). These "wires" extended more than 5 cm along the stem. […] The conductivity of PEDOT-S:H wires was measured using two Au probes applied into individual PEDOT-S:H xylem wires along the stem (Fig. 7D). From the linear fit of resistance versus distance between the contacts, we found electrical conductivity reading 0.13 S/cm with contact resistance ∼10 kΩ (Fig. 7E). […]
Figure 29A is an external views of a plant part, in this case the steam where the epidermis has been peeled off, also showing two gold plated microelectrodes 2300 used to contact and penetrate a surface of the stem in order to reach the xylem channel. […] This is the currently highest measured electronic conductivity in a plant. […]

The nature of data set [3]: Conductivity of ETE-S polymerized in air. The class given is physicochemical. As to the method: The conductivity of ETE-S based wires was measured using two Au probes applied into individual xylem wires along the stem (Fig. 38) and found to be equal to 7.25 +- 3.38 S/cm (n=17). […] The high conductivity was retained for cm scale wires showing that good interconnectivity is achieved along the xylem wires. […] The conductivity of 10mg/ml solution is 10^-5 S/cm while for 50mg/ml is on the order of 10^-3S/CM. In the plants we typically administrate 5ml solution of 1mg/ml concentration. An estimation of the total volume of the xylem tubing in a rose cutting of 15cm is 0.15ml taking into account an average diameter of xylem to be 20um. For this volume and since all the solution is taken up form the plant we end up with concentrations of the ETE-S molecule in the order of 30mg/ml. From microscopy images we see that approximately only 10% of the xylem is filled, while the majority of the rest is coated with the material and for that volume we have concentrations up to 300mg/ml. This high concentration in the plant allows the material to organize and polymerize in a way that creates highly conducting wires.

Data set [4] in a line: Xylem supercapacitor, specific capacitance of xylem wire electrodes. As to conditions: from slope of capacitance per area vs length of xylem wire. In kind it is physicochemical, rose. An excerpt:
Plant's anatomy upon functionalization with the conducting material provides an ideal architecture for developing supercapacitors in vivo. The long-range conducting xylem wires are parallel and electronically isolated to each other while are surrounded with cellular domains and extracellular space rich in electrolyte. Therefore we explored the charge storage capacity of the xylem wires. Two parallel xylem wires served as the electrodes (capacitor plates) and the plant tissue in between them the spacer. Two Au probes defined the electrodes contacts. In the schematic of Fig. 36.a we show the general structure and the wiring of a supercapacitor along with the optical micrograph of the corresponding supercapacitor in the plant Fig. 36.b.
From the slope of the discharging curve we calculate the capacitance of the device equal to 1.3 10^-4 F The capacitive behavior of the material is indicated and by the square shaped voltamogramm Fig. 43 in the potential range of -0.5V - 0.5V. In order to extract the specific capacitance of the xylem electrodes we measure devices of various dimensions. Xylem wires have typically diameter of 30-50um and lengths in the cm scale. In Fig. 36.d. we show the capacitance per area (diameter of xylem wire) vs the length. From the slope we calculated the specific capacitance and found it equal to 20F/cm3, a value in the typical range for conducting polymers. […]

The subject of the next data set is young bean plant. The data set is described as follows: Immersion of bean plant roots or stem in compound 1 solution, plant survival and growth. As to conditions: roots or stem immersed in 1 mg/mL aqueous solution; replanted in gel. The class given is in vivo. The procedure: Figure 16A-E illustrates another experiment, with references to the alphabetical parts of figure in parenthesis. A young bean plant having a plurality of roots was used as a test specimen. In (A) the roots of the young bean plant were planted in a plastic container having Seedhru® gel as a soil substitute.. Two of the roots of the bean plant were immersed in a vial 1600 (B) containing aqueous solution of compound 1 (1 mg/mL). […] As soon as or shortly after the two roots were immersed the color of the compound 1 solution shifted from white to pink (D) and then back to white again. The reason of the color shift is still being investigated. […] After 24 hours one of the roots was removed from the compound 1 solution and can be seen in (E) and in figure 17. The other root was left immersed in the compound 1 solution for 24 more hours (total 48hours). After 48 hours the second root was cut of the bean plant and can be seen in figure 18.. Note that the part of the root which was immersed in compound 1 is now coated with polymerized compound 1 as indicated by the darker color. […]

“Also recorded” adds a separate entry of the source.

Consider `c1scc2c1OCCO2` [EDOT], for which, in data set [1], the “onset potential of the polymerization” value stood at 1.1 V.

Consider “exo-EDOT-Thiophene-EDOT-alkoxylfonate [compound 1]”, for which the electrical conductivity entry in data set [2] is “approximately 1.5 S/cm”. Further, the conductivity in data set [3] (10mg/ml solution) is reported as 10^-5 S/cm; in data set [3] (50mg/ml solution), ~10^-3 S/CM. Besides, the specific capacitance in data set [4] was 20 F/cm3. The “growth or survival of the plant” value in the data set with young bean plant is reported as “survives for at least two weeks; also recorded: showed further growth”.

For the origin of these results see EP3118613B1, “ELECTRIC COMPONENT WITH ORGANIC PART” (ACREO SWEDISH ICT AB, priority 2015, dated 2017).
